US9776979B2, “EBI2 modulators” (Sanford-Burnham Medical Research Institute, priority 2013, dated 2017)

The compounds below were run against EBI2 (Homo sapiens, UniProt P32249) (assay: Cell-based luminescent assay (EBI2 modulation)). Conditions: cell-based luminescence; 7a,25-OHC final assay concentration 80 nM; 60 minutes incubation; read-out: IC50.
In short: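 Cells plated overnight at 37° C, then exposed to compound at 4-5 uM final with 80 nM 7a,25-OHC agonist for 60 min at 37° C. Luminescence read after 60 min detection at 25° C in the dark; values normalized to neutral and stimulator controls and plate-pattern corrected.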

Sequence of EBI2 (P32249 whole entry): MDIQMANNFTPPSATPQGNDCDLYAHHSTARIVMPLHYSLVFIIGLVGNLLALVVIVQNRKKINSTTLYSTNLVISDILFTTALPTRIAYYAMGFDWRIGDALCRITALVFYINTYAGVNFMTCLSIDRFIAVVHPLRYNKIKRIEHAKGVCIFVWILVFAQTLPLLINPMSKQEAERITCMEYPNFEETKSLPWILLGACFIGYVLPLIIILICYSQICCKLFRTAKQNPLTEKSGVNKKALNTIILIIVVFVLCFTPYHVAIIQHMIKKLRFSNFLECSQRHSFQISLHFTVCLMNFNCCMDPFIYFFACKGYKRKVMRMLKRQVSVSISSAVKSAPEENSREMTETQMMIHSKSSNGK

Row | IC50 | Compound
1 | < 100 nM | O=C(c1cc2cc(Cl)ccc2[nH]1)N1CCN(Cc2ccc(F)cc2)CC1 [Compound C319, 5-chloroindol-2-yl 4-[(4-fluorophenyl)methyl]piperazinyl ketone]
2 | < 100 nM | O=C(C#Cc1cccc(Cl)c1)N1CCN(C(c2ccccc2)c2ccccc2)CC1 [Compound C92, 1-[4-(diphenylmethyl)piperazinyl]-3-(3-chlorophenyl)prop-2-yn-1-one]
3 | < 100 nM | 1-[4-(diphenylmethyl)piperazinyl]-3-(4-bromo-2-fluorophenyl)prop-2-yn-1-one [Compound C107]
4 | < 100 nM | O=C(/C=C/c1ccccc1)N1CCN(Cc2cccc(Cl)c2)CC1 [Compound C365, (2E)-1-{4-[(3-chlorophenyl)methyl]piperazinyl}-3-phenylprop-2-en-1-one]
5 | < 100 nM | COc1ccc(C(=O)N2CCN(C(=O)c3cc4ccc(Cl)cc4[nH]3)CC2)cc1 [Compound C151, 6-chloroindol-2-yl 4-[(4-methoxyphenyl)carbonyl]piperazinyl ketone]
6 | < 100 nM | O=C(c1ccc(F)cc1)N1CCN(C(=O)c2cc3cc(Cl)ccc3[nH]2)CC1 [Compound C119, 5-chloroindol-2-yl 4-[(4-fluorophenyl)carbonyl]piperazinyl ketone]
7 | < 100 nM | O=C(NCC1CCN(C(=O)/C=C/c2ccc(Br)cc2)CC1)c1ccc(F)cc1 [Compound C136, N-({1-[(2E)-3-(4-bromophenyl)prop-2-enoyl](4-piperidyl)}methyl)(4-fluorophenyl)carboxamide]
8 | < 100 nM | O=C(C#Cc1cccc(Cl)c1Cl)N1CCN(C(=O)c2ccc(F)cc2C(F)(F)F)CC1 [Compound C90, 3-(2,3-dichlorophenyl)-1-(4-{[4-fluoro-2-(trifluoromethyl)phenyl]carbonyl}piperazinyl)prop-2-yn-1-one]
9 | < 100 nM | COc1ccc(C(=O)N2CCN(C(=O)C#Cc3ccc(Cl)cc3)CC2)cc1 [Compound C7, 3-(4-chlorophenyl)-1-{4-[(4-methoxyphenyl)carbonyl]piperazinyl}prop-2-yn-1-one]
10 | < 100 nM | O=C(/C=C/c1cc(F)c(F)c(F)c1)N1CCN(C(c2ccccc2)c2ccccc2)CC1 [Compound C147]
11 | 100 to 500 nM | O=C(Nc1ccc(C(F)(F)F)cc1)N1CCN(C(=O)c2cc3cc(Cl)ccc3[nH]2)CC1 [Compound C456, {4-[(5-chloroindol-2-yl)carbonyl]piperazinyl}-N-[4-(trifluoromethyl)phenyl]carboxamide]
12 | < 100 nM | 1-{4-[(4-bromophenyl)carbonyl]piperazinyl}-3-(4-chlorophenyl)prop-2-yn-1-one [Compound C19]
13 | < 100 nM | 4-(diphenylmethyl)piperazinyl 5-bromobenzo[b]thiophen-2-yl ketone [Compound C207]
14 | < 100 nM | O=C(/C=C/c1ccccc1Cl)N1CCN(C(c2ccccc2)c2ccccc2)CC1 [Compound C320, (2E)-1-[4-(diphenylmethyl)piperazinyl]-3-(2-chlorophenyl)prop-2-en-1-one]
15 | 100 to 500 nM | O=C(Nc1cccc(I)c1)N1CCN(C(=O)c2cc3cc(Cl)ccc3[nH]2)CC1 [Compound C474, {4-[(5-chloroindol-2-yl)carbonyl]piperazinyl}-N-(3-iodophenyl)carboxamide]
16 | 100 to 500 nM | O=C(c1cnc2ccccc2n1)N1CCN(C(c2ccccc2)c2ccccc2)CC1 [Compound C276, 4-(diphenylmethyl)piperazinyl quinoxalin-2-yl ketone]
17 | < 100 nM | COC(=O)c1ccc(C(=O)N2CCN(C(=O)c3cc4cc(Br)ccc4[nH]3)CC2)cc1 [Compound C81, methyl 4-({4-[(5-bromoindol-2-yl)carbonyl]piperazinyl}carbonyl)benzoate]
18 | < 100 nM | O=C(/C=C/c1ccccc1)N1CCN(Cc2ccc(Br)cc2)CC1 [Compound C203, (2E)-1-{4-[(4-bromophenyl)methyl]piperazinyl}-3-phenylprop-2-en-1-one]
19 | 100 to 500 nM | 1-(4-{[4-fluoro-2-(trifluoromethyl)phenyl]methyl}piperazinyl)-3-[4-(trifluoromethyl)phenyl]prop-2-yn-1-one [Compound C432]
20 | 100 to 500 nM | Cc1nc2ccc(C(=O)N3CCN(C(c4ccccc4)c4ccccc4)CC3)cc2[nH]1 [Compound C465, 4-(diphenylmethyl)piperazinyl 2-methylbenzimidazol-5-yl ketone]
21 | < 100 nM | O=C(C#Cc1ccc(Cl)cc1)N1CCN(C(=O)c2ccc(F)cc2)CC1 [Compound C28, 3-(4-chlorophenyl)-1-{4-[(4-fluorophenyl)carbonyl]piperazinyl}prop-2-yn-1-one]
22 | < 100 nM | Cc1ccc2[nH]c(C(=O)N3CCN(S(=O)(=O)/C=C/c4ccccc4)CC3)cc2c1 [Compound C48, 4-[((1E)-2-phenylvinyl)sulfonyl]piperazinyl 5-methylindol-2-yl ketone]
23 | 100 to 500 nM | O=C(/C=C/c1ccccc1C(F)(F)F)N1CCN(S(=O)(=O)c2ccc(Br)cc2)CC1 [Compound C277, (2E)-1-{4-[(4-bromophenyl)sulfonyl]piperazinyl}-3-[2-(trifluoromethyl)phenyl]prop-2-en-1-one]
24 | < 100 nM | COc1ccc(C(=O)N2CCN(C(=O)C#Cc3ccc(C(F)(F)F)cc3)CC2)cc1 [Compound C9, 1-{4-[(4-methoxyphenyl)carbonyl]piperazinyl}-3-[4-(trifluoromethyl)phenyl]prop-2-yn-1-one]
25 | 500 to 5000 nM | O=C(Nc1ccc(F)cc1)c1ccc(CN2CCN(C(=O)c3cc4cc(Cl)ccc4[nH]3)CC2)cc1 [Compound C181, [4-({4-[(5-chloroindol-2-yl)carbonyl]piperazinyl}methyl)phenyl]-N-(4-fluorophenyl)carboxamide]
26 | < 100 nM | O=C(c1cc2cc(F)ccc2s1)N1CCN(C(c2ccccc2)c2ccccc2)CC1 [Compound C156, 4-(diphenylmethyl)piperazinyl 5-fluorobenzo[b]thiophen-2-yl ketone]
27 | 100 to 500 nM | O=C(c1cc(Br)c[nH]1)N1CCN(C(c2ccccc2)c2ccccc2)CC1 [Compound C436, 4-(diphenylmethyl)piperazinyl 4-bromopyrrol-2-yl ketone]
28 | < 100 nM | O=C(c1ccc(-c2nnn[nH]2)cc1)N1CCN(C(=O)c2cc3cc(Cl)ccc3[nH]2)CC1 [Compound C204, 5-chloroindol-2-yl 4-[(4-(1H-1,2,3,4-tetraazol-5-yl)phenyl)carbonyl]piperazinyl ketone]
29 | < 100 nM | Cc1ccc2[nH]c(C(=O)N3CCN(S(=O)(=O)CCc4ccccc4)CC3)cc2c1 [Compound C57, 5-methylindol-2-yl 4-[(2-phenylethyl)sulfonyl]piperazinyl ketone]
30 | 500 to 5000 nM | O=C(C#Cc1cc(F)cc(F)c1)N1CCN(Cc2ccc(C(F)(F)F)cc2)CC1 [Compound C195, 3-(3,5-difluorophenyl)-1-(4-{[4-(trifluoromethyl)phenyl]methyl}piperazinyl)prop-2-yn-1-one]

Row | Compound | IC50
31 | O=C(CCc1ccc(F)cc1)N1CCN(S(=O)(=O)/C=C/c2ccccc2)CC1 [Compound C406, 1-{4-[((1E)-2-phenylvinyl)sulfonyl]piperazinyl}-3-(4-fluorophenyl)propan-1-one] | 100 to 500 nM
32 | COc1cc(CN2CCN(C(=O)/C=C/c3ccc(Br)cc3)CC2)cc(OC)c1 [Compound C72, (2E)-1-{4-[(3,5-dimethoxyphenyl)methyl]piperazinyl}-3-(4-bromophenyl)prop-2-en-1-one] | < 100 nM
